Measured values reported in ChEMBL document CHEMBL1138670, “Prospects for inhibitors of protein tyrosine phosphatase 1B as antidiabetic drugs” (J Med Chem, 2004).
Each block holds one compound with its values, some of them ahead of it.

Experiments:
[1] = target: T1, Tyrosine-protein phosphatase non-receptor type 1 (Homo sapiens, UniProt P18031); experiment: Inhibitory activity against Protein-tyrosine phosphatase 1B at pH 5.5
T1 sequence (P18031 whole entry): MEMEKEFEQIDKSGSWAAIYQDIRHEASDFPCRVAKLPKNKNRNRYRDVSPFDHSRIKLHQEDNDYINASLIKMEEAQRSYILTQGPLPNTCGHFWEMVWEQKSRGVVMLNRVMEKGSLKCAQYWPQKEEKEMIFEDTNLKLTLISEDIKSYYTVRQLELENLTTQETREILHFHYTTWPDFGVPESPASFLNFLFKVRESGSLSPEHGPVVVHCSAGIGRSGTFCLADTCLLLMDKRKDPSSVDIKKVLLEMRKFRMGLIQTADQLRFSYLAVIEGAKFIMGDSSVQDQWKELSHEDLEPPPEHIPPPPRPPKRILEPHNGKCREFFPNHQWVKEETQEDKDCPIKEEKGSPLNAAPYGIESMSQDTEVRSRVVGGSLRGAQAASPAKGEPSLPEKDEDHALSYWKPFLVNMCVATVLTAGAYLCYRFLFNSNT

[2] = Bioavailability; format: ADME, organism-based; details: eutheria, in vivo; read-out: Fez
[3] = target: T2, Tyrosine-protein phosphatase non-receptor type 1 (Homo sapiens) (UniProt P18031); experiment: Inhibitory concentration for Protein-tyrosine phosphatase 1B
T2 sequence (whole entry): T1 sequence (P18031 whole entry)

[4] = target: T1, Tyrosine-protein phosphatase non-receptor type 1; experiment: Inhibitory activity against Protein-tyrosine phosphatase 1B

Ki [1]: 18 nM
SMILES: O=C(O)C(=O)Nc1sc2c(c1C(=O)O)CCN[C@H]2CNC(=O)c1cc2cc(F)ccc2[nH]1

bioavailability [2]: 13%
SMILES: O=C(c1ccccc1)C(Cc1ccc(C(F)(F)P(=O)(O)O)cc1)c1ccccc1 (centres undefined)

Concentration [3]: 5.6 µM
SMILES: CC(C)c1ccc(N2N=C3CSCC=C3C(C#N)=C2N)cc1

SMILES: CCc1cc(CC(NC(C)=O)C(=O)NCCCCC(=O)N[C@@H](CCSC)C(=O)O)ccc1N(C(=O)C(=O)O)c1ccccc1C(=O)O (some centres undefined)
Ki [4]: 77 nM
